Measurements: PubChem BioAssay (NCI)
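Briefly, cells in 96-well plates were exposed to five compound concentrations for 48 h, and endpoints were estimated by linear interpolation. GI50 marks 50% less growth. TGI: concentration producing complete growth inhibition.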

Columns and labels:
Experiment in all cases: NCI tumour cell line growth inhibition, 48 h
MALME-3M melanoma = tested on: MALME-3M melanoma
SF-268 CNS = tested on: SF-268 CNS
SK-MEL-5 melanoma = tested on: SK-MEL-5 melanoma
ACHN renal = tested on: ACHN renal
NCI-H23 lung = tested on: NCI-H23 lung
CCRF-CEM leukemia = tested on: CCRF-CEM leukemia
NCI/ADR-RES ovarian = tested on: NCI/ADR-RES ovarian
MCF7 breast = tested on: MCF7 breast
OVCAR-4 ovarian = tested on: OVCAR-4 ovarian
MDA-MB-231 breast = tested on: MDA-MB-231 breast
SK-MEL-2 melanoma = tested on: SK-MEL-2 melanoma
RXF 393 renal = tested on: RXF 393 renal
HCT-15 colon = tested on: HCT-15 colon
SNB-19 CNS = tested on: SNB-19 CNS
786-0 renal = tested on: 786-0 renal
SN12C renal = tested on: SN12C renal
MOLT-4 leukemia = tested on: MOLT-4 leukemia
COLO 205 colon = tested on: COLO 205 colon
MDA-MB-435 = tested on: MDA-MB-435
TK-10 renal = tested on: TK-10 renal
K-562 leukemia = tested on: K-562 leukemia
HOP-92 NSCLC = tested on: HOP-92 NSCLC
HS 578T breast = tested on: HS 578T breast
OVCAR-5 ovarian = tested on: OVCAR-5 ovarian
SF-539 CNS = tested on: SF-539 CNS
U251 CNS = tested on: U251 CNS
NCI-H460 lung = tested on: NCI-H460 lung
A549 NSCLC = tested on: A549 NSCLC
SW-620 colon = tested on: SW-620 colon
DU-145 prostate = tested on: DU-145 prostate
SR leukemia = tested on: SR leukemia
A498 renal = tested on: A498 renal
HCC-2998 colon = tested on: HCC-2998 colon
KM12 colon = tested on: KM12 colon
SF-295 CNS = tested on: SF-295 CNS
HCT-116 colon = tested on: HCT-116 colon
OVCAR-3 ovarian = tested on: OVCAR-3 ovarian
T-47D breast = tested on: T-47D breast
HL-60(TB) leukemia = tested on: HL-60(TB) leukemia
NCI-H522 lung = tested on: NCI-H522 lung
OVCAR-8 ovarian = tested on: OVCAR-8 ovarian
NCI-H226 lung = tested on: NCI-H226 lung
IGROV1 ovarian = tested on: IGROV1 ovarian
UACC-257 melanoma = tested on: UACC-257 melanoma
SNB-75 CNS = tested on: SNB-75 CNS
LOX IMVI melanoma = tested on: LOX IMVI melanoma
HT29 colon = tested on: HT29 colon
UACC-62 melanoma = tested on: UACC-62 melanoma
UO-31 renal = tested on: UO-31 renal
CAKI-1 renal = tested on: CAKI-1 renal
SK-MEL-28 melanoma = tested on: SK-MEL-28 melanoma
RPMI-8226 leukemia = tested on: RPMI-8226 leukemia
EKVX NSCLC = tested on: EKVX NSCLC
SK-OV-3 ovarian = tested on: SK-OV-3 ovarian
PC-3 prostate = tested on: PC-3 prostate
BT-549 breast = tested on: BT-549 breast
HOP-62 NSCLC = tested on: HOP-62 NSCLC

## C#CCN(C)CCCOc1ccc(NCc2ccc(C(=O)NO)cc2)cc1Cl
MALME-3M melanoma
  GI50: 1.11 µM
  TGI: 6.9 µM
SF-268 CNS
  GI50: 2.72 µM
  TGI: 22.9 µM
SK-MEL-5 melanoma
  GI50: 1.51 µM
  TGI: 3.41 µM
ACHN renal
  GI50: 2.62 µM
  TGI: 10.5 µM
NCI-H23 lung
  GI50: 2.18 µM
  TGI: 5.83 µM
CCRF-CEM leukemia
  GI50: 0.632 µM
  TGI: > 100 µM
NCI/ADR-RES ovarian
  GI50: 0.738 µM
  TGI: > 100 µM
MCF7 breast
  GI50: 2.83 µM
  TGI: 21 µM
OVCAR-4 ovarian
  GI50: 3.4 µM
  TGI: > 100 µM
MDA-MB-231 breast
  GI50: 2.1 µM
  TGI: 13.6 µM
SK-MEL-2 melanoma
  GI50: 2.77 µM
  TGI: 8.66 µM
RXF 393 renal
  GI50: 1.22 µM
  TGI: 3.2 µM
HCT-15 colon
  GI50: 0.674 µM
  TGI: 19.4 µM
SNB-19 CNS
  GI50: 3.08 µM
  TGI: 16.8 µM
786-0 renal
  GI50: 3.18 µM
  TGI: 14.3 µM
SN12C renal
  GI50: 2.69 µM
  TGI: 17.4 µM
MOLT-4 leukemia
  GI50: 1.46 µM
  TGI: > 100 µM
COLO 205 colon
  GI50: 2.38 µM
  TGI: 6.92 µM
MDA-MB-435
  GI50: 2.59 µM
  TGI: 12.4 µM
TK-10 renal
  GI50: 1.91 µM
  TGI: 10.1 µM
K-562 leukemia
  GI50: 2.16 µM
  TGI: > 100 µM
HOP-92 NSCLC
  GI50: 1.37 µM
  TGI: 5.92 µM
HS 578T breast
  GI50: 1.85 µM
  TGI: 8.63 µM
OVCAR-5 ovarian
  GI50: 2.38 µM
  TGI: 18.4 µM
SF-539 CNS
  GI50: 2.05 µM
  TGI: 10.3 µM
U251 CNS
  GI50: 2.16 µM
  TGI: 10 µM
NCI-H460 lung
  GI50: 2.08 µM
  TGI: 14.6 µM
A549 NSCLC
  GI50: 2.71 µM
  TGI: 15.3 µM
SW-620 colon
  GI50: 2.18 µM
  TGI: 10.6 µM
DU-145 prostate
  GI50: 2.19 µM
  TGI: 14.8 µM
SR leukemia
  GI50: 0.724 µM
  TGI: > 100 µM
A498 renal
  GI50: 1.11 µM
  TGI: 2.75 µM
HCC-2998 colon
  GI50: 2.66 µM
  TGI: 12.3 µM
KM12 colon
  GI50: 2.67 µM
  TGI: 12.6 µM
SF-295 CNS
  GI50: 1.84 µM
  TGI: 3.8 µM
HCT-116 colon
  GI50: 1.43 µM
  TGI: 10.9 µM
OVCAR-3 ovarian
  GI50: 2.06 µM
  TGI: 18.2 µM
T-47D breast
  GI50: 1.85 µM
  TGI: 18.7 µM
HL-60(TB) leukemia
  GI50: 1.37 µM
  TGI: 44.4 µM
NCI-H522 lung
  GI50: 1.07 µM
  TGI: 6.51 µM
OVCAR-8 ovarian
  GI50: 1.4 µM
  TGI: > 100 µM
NCI-H226 lung
  GI50: 2.45 µM
  TGI: 16.9 µM
IGROV1 ovarian
  GI50: 1.41 µM
  TGI: 4.47 µM
UACC-257 melanoma
  GI50: 1.42 µM
  TGI: 31.1 µM
SNB-75 CNS
  GI50: 2.28 µM
  TGI: 16.6 µM
LOX IMVI melanoma
  GI50: 1.76 µM
  TGI: 3.46 µM
HT29 colon
  GI50: 2.96 µM
  TGI: 20.5 µM
UACC-62 melanoma
  GI50: 1.61 µM
  TGI: 5.27 µM
UO-31 renal
  GI50: 0.5 µM
  TGI: 2.78 µM
CAKI-1 renal
  GI50: 2.33 µM
  TGI: 11.7 µM
SK-MEL-28 melanoma
  GI50: 2.57 µM
  TGI: 11.5 µM
RPMI-8226 leukemia
  GI50: 1.56 µM
  TGI: 12.3 µM
EKVX NSCLC
  GI50: 3.6 µM
  TGI: 22.5 µM
SK-OV-3 ovarian
  GI50: 2.01 µM
  TGI: 10.8 µM
PC-3 prostate
  GI50: 1.94 µM
  TGI: 22.8 µM
BT-549 breast
  GI50: 2.76 µM
  TGI: 37.3 µM
HOP-62 NSCLC
  GI50: 2.8 µM
  TGI: 16.3 µM
